Laboratory results as given in patent publication US9822124B2, “Bicyclic heteroaromatic carboxamide compounds useful as Pim kinase inhibitors” (Incyte Corporation, priority 2014, dated 2017).

Tests used:
Assay type in all cases: biochemical
Pim-1 = Pim-1 (Homo sapiens (Human), UniProt P11309); assay: Pim-1 kinase assay (AlphaScreen, Biotin-labeled BAD peptide substrate); settings: 1 mM ATP; read-out: Pim1 IC50
Method: (§1) Pim-1 and Pim-3 kinase assays—20 μL reactions were run in white 384 well polystyrene plates dotted with 0.8 μL compound/DMSO in the assay buffer (50 mM Tris, pH 7.5, 0.01% Tween-20, 5 mM MgCl2, 0.01% BSA, 5 mM DTT), containing 0.05 μM Biotin-labeled BAD peptide substrate (AnaSpec 62269), 1 mM ATP, and […] (Pim-1, Invitrogen PV3503) or […] (Pim-3, Millipore 14-738) enzyme for 1 h at 25° C. Reactions were stopped by addition of 10 μL STOP Buffer (150 mM Tris, pH=7.5, 150 mM NaCl, 75 mM EDTA, 0.01% Tween-20, 0.3% BSA) supplemented with Phospho-Bad (Ser112) Antibody (Cell Signaling 9291) diluted 666-fold, and Streptavidin donor beads (PerkinElmer 6760002) along with Protein-A acceptor beads (PerkinElmer 6760137) at 15 μg/mL each. Supplementation of the STOP buffer with beads and stopping the reactions were done under reduced light. Prior to the stopping reactions STOP buffer with beads was preincubated for 1 h in the dark at room temperature. After stopping the reactions, plates were incubated for 1 h in the dark at room temperature before reading on a PHERAstar FS plate reader (BMG Labtech) under reduced light.

Pim-2 = Pim-2 (Homo sapiens (Human), UniProt Q9P1W9); assay: Pim-2 kinase assay (TR-FRET, Fluorescein-labeled CREBtide peptide substrate); settings: 1 mM ATP; read-out: Pim2 IC50
Pim-2, sequence (Q9P1W9 whole entry): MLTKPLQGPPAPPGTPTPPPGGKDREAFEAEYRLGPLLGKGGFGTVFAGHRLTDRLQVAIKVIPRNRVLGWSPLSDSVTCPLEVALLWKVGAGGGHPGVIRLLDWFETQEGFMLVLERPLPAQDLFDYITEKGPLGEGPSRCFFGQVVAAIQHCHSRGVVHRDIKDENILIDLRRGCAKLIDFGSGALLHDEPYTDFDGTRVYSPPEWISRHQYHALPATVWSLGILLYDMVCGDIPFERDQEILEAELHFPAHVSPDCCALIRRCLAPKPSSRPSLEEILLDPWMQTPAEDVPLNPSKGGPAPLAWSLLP
Method: Pim-2 kinase assay—20 μL reactions were run in white 384 well polystyrene plates dotted with 0.8 μL compound/DMSO in the assay buffer (50 mM Tris, pH 7.5, 0.01% Tween-20, 5 mM MgCl2, 0.01% BSA, 5 mM DTT), containing 0.05 μM Fluorescein-labeled CREBtide peptide substrate (Invitrogen PV3508), 1 mM ATP, and 1 nM enzyme (Invitrogen PV3649) for 2 h at 25° C. Reactions were stopped by addition of 10 μL TR-FRET Dilution Buffer (Invitrogen PV3574) with 30 mM EDTA and 1.5 nM LanthaScreen Tb-CREB pSer133 antibody (Invitrogen PV3566). After 30 min. incubation at room temperature, plates were read on a PHERAstar FS plate reader (BMG Labtech).

Pim-3 = Pim-3 (Homo sapiens (Human), UniProt Q86V86); assay: Pim-3 kinase assay (AlphaScreen, Biotin-labeled BAD peptide substrate); settings: 1 mM ATP; read-out: Pim3 IC50
Method: as §1

Pim-1, sequence (P11309 whole entry): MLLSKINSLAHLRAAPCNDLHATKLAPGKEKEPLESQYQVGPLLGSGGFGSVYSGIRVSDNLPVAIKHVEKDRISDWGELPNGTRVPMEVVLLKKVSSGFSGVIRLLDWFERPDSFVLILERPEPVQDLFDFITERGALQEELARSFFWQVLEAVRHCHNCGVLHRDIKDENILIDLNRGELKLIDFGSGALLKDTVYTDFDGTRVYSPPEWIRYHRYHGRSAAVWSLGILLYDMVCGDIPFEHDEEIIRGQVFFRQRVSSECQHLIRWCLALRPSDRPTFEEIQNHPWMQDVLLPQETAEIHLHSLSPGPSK

| Compound | IC50 (Pim-1) | IC50 (Pim-2) | IC50 (Pim-3) |
| --- | --- | --- | --- |
| C[C@H]1CN(c2ccncc2NC(=O)c2ccc3sc(-c4ccccc4)cc3n2)C[C@@H](N)[C@@H]1O [Example 46, N-(4-((3R,4R,5S)-3-Amino-4-hydroxy-5-methylpiperidin-1-yl)pyridin-3-yl)-2-phenylthieno[3,2-b]pyridine-5-carboxamide] | ≤ 10 nM | 100 to 1000 nM | ≤ 10 nM |
| COc1ccc(F)c(-c2coc3ccc(C(=O)Nc4cnccc4N4C[C@H](C)C[C@H](N)C4)nc23)c1F [Example 22, N-(4-((3S,5R)-3-Amino-5-methylpiperidin-1-yl)pyridin-3-yl)-3-(2,6-difluoro-3-methoxyphenyl)furo[3,2-b]pyridine-5-carboxamide] | ≤ 10 nM | ≤ 100 nM | ≤ 10 nM |
| C[C@H]1CN(c2ccncc2NC(=O)c2ccc3sc(C4CC4)nc3n2)C[C@@H](N)[C@@H]1O [Example 79, N-{4-[(3R,4R,5S)-3-Amino-4-hydroxy-5-methylpiperidin-1-yl]pyridin-3-yl}-2-cyclopropyl[1,3]thiazolo[4,5-b]pyridine-5-carboxamide] | ≤ 10 nM | 100 to 1000 nM | ≤ 10 nM |
| Cc1cc2nc(C(=O)Nc3cnccc3N3C[C@@H](N)[C@H](O)[C@@H](C)C3)ccc2s1 [Example 49, N-(4-((3R,4R,5S)-3-Amino-4-hydroxy-5-methylpiperidin-1-yl)pyridin-3-yl)-2-methylthieno[3,2-b]pyridine-5-carboxamide] | ≤ 10 nM | 100 to 1000 nM | ≤ 10 nM |
| C[C@H]1CN(c2ccncc2NC(=O)c2ccc3occ(C4CC4)c3n2)C[C@@H](N)[C@@H]1O [Example 34, N-(4-((3R,4R,5S)-3-Amino-4-hydroxy-5-methylpiperidin-1-yl)pyridin-3-yl)-3-cyclopropylfuro[3,2-b]pyridine-5-carboxamide] | ≤ 10 nM | ≤ 100 nM | ≤ 10 nM |
| CCCc1cc2nc(C(=O)Nc3cnccc3N3C[C@@H](N)[C@H](O)[C@@H](C)C3)ccc2s1 [Example 38, N-(4-((3R,4R,5S)-3-Amino-4-hydroxy-5-methylpiperidin-1-yl)pyridin-3-yl)-2-propylthieno[3,2-b]pyridine-5-carboxamide] | ≤ 10 nM | 100 to 1000 nM | ≤ 10 nM |
| C[C@H]1CN(c2ccncc2NC(=O)c2ccc3cc([C@@H]4C[C@@H]4C)oc3n2)C[C@@H](N)[C@@H]1O (racemic) [Example 73, N-{4-[(3R,4R,5S)-3-Amino-4-hydroxy-5-methylpiperidin-1-yl]pyridin-3-yl}-2-(cis-2-methylcyclopropyl)furo[2,3-b]pyridine-6-carboxamide] | ≤ 10 nM | ≤ 100 nM | ≤ 10 nM |
| C[C@@H]1C[C@H](N)CN(c2ccncc2NC(=O)c2ccc3sc(-c4ccccc4)cc3n2)C1 [Example 58, N-(4-((3S,5R)-3-Amino-5-methylpiperidin-1-yl)pyridin-3-yl)-2-phenylthieno[3,2-b]pyridine-5-carboxamide] | ≤ 10 nM | 100 to 1000 nM | ≤ 10 nM |
| C[C@@H]1C[C@H]1c1cc2ccc(C(=O)Nc3cnccc3N3C[C@@H](N)[C@H](O)[C@@H](C)C3)nc2o1 (racemic) [Example 74, N-{4-[(3R,4R,5S)-3-Amino-4-hydroxy-5-methylpiperidin-1-yl]pyridin-3-yl}-2-(trans-2-methylcyclopropyl)furo[2,3-b]pyridine-6-carboxamide] | ≤ 10 nM | ≤ 100 nM | ≤ 10 nM |
| C[C@H]1CN(c2ccncc2NC(=O)c2ccc3sc(Cc4ccccc4)cc3n2)C[C@@H](N)[C@@H]1O [Example 42, N-(4-((3R,4R,5S)-3-Amino-4-hydroxy-5-methylpiperidin-1-yl)pyridin-3-yl)-2-benzylthieno[3,2-b]pyridine-5-carboxamide] | ≤ 10 nM | 100 to 1000 nM | ≤ 10 nM |
| C[C@H]1CN(c2ccncc2NC(=O)c2ccc3occ(C4CCOCC4)c3n2)C[C@@H](N)[C@@H]1O [Example 17, N-(4-((3R,4R,5S)-3-Amino-4-hydroxy-5-methylpiperidin-1-yl)pyridin-3-yl)-3-(tetrahydro-2H-pyran-4-yl)furo[3,2-b]pyridine-5-carboxamide] | ≤ 10 nM | 100 to 1000 nM | ≤ 10 nM |
| CCc1csc2ccc(C(=O)Nc3cnccc3N3CCC[C@H](N)C3)nc12 [Example 66, N-{4-[(3S)-3-Aminopiperidin-1-yl]pyridin-3-yl}-3-ethylthieno[3,2-b]pyridine-5-carboxamide] | ≤ 10 nM | 100 to 1000 nM | ≤ 10 nM |
| C[C@@H]1C[C@H](N)CN(c2ccncc2NC(=O)c2ccc3oc(-c4c(F)cccc4F)cc3n2)C1 [Example 4, N-(4-((3S,5R)-3-Amino-5-methylpiperidin-1-yl)pyridin-3-yl)-2-(2,6-difluorophenyl)furo[3,2-b]pyridine-5-carboxamide] | ≤ 10 nM | > 2000 nM | 10 to 50 nM |
| C[C@@H]1C[C@H](N)CN(c2ccncc2NC(=O)c2ccc3occ(C4CCN(C)CC4)c3n2)C1 [Example 24, N-(4-((3S,5R)-3-Amino-5-methylpiperidin-1-yl)pyridin-3-yl)-3-(1-methylpiperidin-4-yl)furo[3,2-b]pyridine-5-carboxamide] | ≤ 10 nM | > 2000 nM | > 40 nM |
| C[C@H]1CN(c2ccncc2NC(=O)c2ccc3sc(C4CC4)cc3n2)C[C@@H](N)[C@@H]1O [Example 47, N-(4-((3R,4R,5S)-3-Amino-4-hydroxy-5-methylpiperidin-1-yl)pyridin-3-yl)-2-cyclopropylthieno[3,2-b]pyridine-5-carboxamide] | ≤ 10 nM | ≤ 100 nM | ≤ 10 nM |
| C[C@@H]1C[C@H](N)C[C@H](c2ccncc2NC(=O)c2ccn3ncc(-c4c(F)cc(CO)cc4F)c3n2)C1 [Example 81, N-{4-[(1R,3S,5S)-3-Amino-5-methylcyclohexyl]pyridin-3-yl}-3-[2,6-difluoro-4-(hydroxymethyl)phenyl]pyrazolo[1,5-a]pyrimidine-5-carboxamide] | ≤ 10 nM | ≤ 100 nM | ≤ 10 nM |
| C[C@@H]1C[C@H](N)CN(c2ccncc2NC(=O)c2ccc3occ(-c4cc(F)nc(F)c4)c3n2)C1 [Example 27, N-(4-((3S,5R)-3-Amino-5-methylpiperidin-1-yl)pyridin-3-yl)-3-(2,6-difluoropyridin-4-yl)furo[3,2-b]pyridine-5-carboxamide] | 10 to 50 nM | > 2000 nM | > 40 nM |
| COc1ccc(F)c(-c2coc3ccc(C(=O)Nc4cnccc4N4C[C@@H](N)[C@H](O)[C@@H](C)C4)nc23)c1F [Example 13, N-(4-((3R,4R,5S)-3-Amino-4-hydroxy-5-methylpiperidin-1-yl)pyridin-3-yl)-3-(2,6-difluoro-3-methoxyphenyl)furo[3,2-b]pyridine-5-carboxamide] | ≤ 10 nM | 100 to 1000 nM | ≤ 10 nM |
| C[C@@H]1C[C@H](N)CN(c2ccncc2NC(=O)c2ccc3ccn(C4CCC4)c3n2)C1 [Example 78, N-{4-[(3S,5R)-3-Amino-5-methylpiperidin-1-yl]pyridin-3-yl}-1-cyclobutyl-1H-pyrrolo[2,3-b]pyridine-6-carboxamide] | ≤ 10 nM | 100 to 1000 nM | ≤ 10 nM |
